Experimental data taken from patent US6423720B1, “Pyrimidine compounds and methods for making and using the same” (Duquesne University of the Holy Ghost, priority 2001, dated 2002).
Marks after values point to notes of the source that are not given here.

Tests used:
[1] = biological target: T1, dihydrofolate reductase (DHFR) from rat liver (RL) (Rattus norvegicus, UniProt Q920D2); assay: Inhibition of dihydrofolate reductase from rat liver (RL DHFR); type: biochemical; conditions: for IC50: read-out: RL DHFR Inhibitory Concentration (IC50)
T1 construct: the IC50 value of the DHFR from rat liver (RL); from tissue; host or cells: rat liver
T1 sequence (Q920D2 1-187): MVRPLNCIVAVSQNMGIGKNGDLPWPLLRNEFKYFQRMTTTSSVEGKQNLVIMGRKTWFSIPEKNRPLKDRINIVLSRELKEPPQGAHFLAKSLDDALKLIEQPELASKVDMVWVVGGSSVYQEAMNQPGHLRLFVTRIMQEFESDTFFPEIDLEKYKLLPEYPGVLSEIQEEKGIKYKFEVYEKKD
Excerpt: (§1) The following examples are intended to illustrate the invention, and should not be construed as limiting the invention in any way. Standard test procedures familiar to those skilled in the art were used in the examples, such as those procedures described by Gangjee, A., et al., in “5-Arylthio-substituted 2-amino-4-oxo-6-methyl pyrrolo[2,3-d]pyrimidine antifolates as thymidylate synthase inhibitors and antitumor agents”, J. Med. Chem., Vol. 38, pp. 4495-4502 (1995); “Effect of bridge region variation on antifolate and antitumor activity of classical 5-substituted 2,4-diamino furo [2,3-d]pyrimidines”, J. Med. Chem., Vol. 38, pp. 3798-3805 (1995); and “Novel 2 ,4-diamino-5-substituted-pyrrolo[2,3-d]pyrimidines As Classical and Non-Classical Antifolate Inhibitors of Dihydrofolate Reductases”, J. Med. Chem., Vol. 38, pp. 2158-2165 (Jun. 6, 1995) and references disclosed therein.
(§2) The compounds described in Table 1 were evaluated as inhibitors of dihydrofolate reductase (DHFR) from Toxoplasmosis gondii (Tx) and rat liver (RL). The evaluation of the compounds consisted of determining the IC50 values and selectivity ratios of each compound against Tx DHFR and RL DHFR. The IC50 value is the concentration of a compound required to inhibit the dihydrofolate reductase activity by 50 percent (%). […] The selectivity ratio is a measure of the selectivity of a compound for Tx DHFR and is expressed as the IC50 value of the DHFR from rat liver (RL) divided by the IC50 value of the Tx DHFR. For example, the selectivity ratio of a compound is calculated by the following formula: [formula]

[2] = biological target: T2, dihydrofolate reductase (DHFR) from Toxoplasmosis gondii (Tx) (Toxoplasma gondii, UniProt Q07422); assay: Inhibition of dihydrofolate reductase from Toxoplasmosis gondii (Tx DHFR); type: biochemical; conditions: for Selectivity Ratio: RL DHFR/Tx DHFR: IC50 RL DHFR divided by IC50 Tx DHFR; for IC50: Toxoplasma gondii DHFR, read-out: Tx DHFR Inhibitory Concentration (IC50)
T2 sequence (Q07422 1-610): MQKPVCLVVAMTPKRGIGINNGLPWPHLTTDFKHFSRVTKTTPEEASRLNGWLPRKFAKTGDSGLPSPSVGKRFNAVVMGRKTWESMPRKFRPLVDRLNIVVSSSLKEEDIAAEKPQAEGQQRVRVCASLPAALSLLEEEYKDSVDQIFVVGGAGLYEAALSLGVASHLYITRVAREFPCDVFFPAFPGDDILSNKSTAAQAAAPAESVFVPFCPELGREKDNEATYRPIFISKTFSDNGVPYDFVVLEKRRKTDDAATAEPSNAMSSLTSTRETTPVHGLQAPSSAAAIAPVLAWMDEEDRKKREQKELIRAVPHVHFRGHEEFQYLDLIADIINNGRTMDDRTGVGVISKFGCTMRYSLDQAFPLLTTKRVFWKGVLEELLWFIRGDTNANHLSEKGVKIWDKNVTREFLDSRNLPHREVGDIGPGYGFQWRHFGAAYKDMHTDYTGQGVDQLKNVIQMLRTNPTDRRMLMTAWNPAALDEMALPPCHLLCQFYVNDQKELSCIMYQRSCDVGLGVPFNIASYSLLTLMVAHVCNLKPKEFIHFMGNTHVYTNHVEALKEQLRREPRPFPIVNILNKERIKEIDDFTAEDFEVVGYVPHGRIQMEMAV
Excerpt: as §1, §2

[3] = biological target: T3, DHFR from Pneumocystis carinii (PC) (Pneumocystis carinii, UniProt P16184); assay: Inhibition of DHFR from Pneumocystis carinii (Pc); type: biochemical
T3 sequence (P16184 1-206): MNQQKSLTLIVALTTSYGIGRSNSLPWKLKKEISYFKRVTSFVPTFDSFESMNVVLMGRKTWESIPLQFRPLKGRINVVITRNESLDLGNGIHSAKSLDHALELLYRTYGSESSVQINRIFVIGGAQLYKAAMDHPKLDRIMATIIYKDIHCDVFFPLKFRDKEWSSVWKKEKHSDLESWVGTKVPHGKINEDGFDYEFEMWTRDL

Row | IC50 [1] [µM] | SMILES | Selectivity Ratio: RL DHFR/Tx DHFR [2] | IC50 [2] [µM] | further results
1 | 97.2 | Nc1nc(N)c(Sc2cccc3ccccc23)c(=O)[nH]1 [Compound 165] | 198.4 | 0.49 | 
2 | 19.8 | Nc1nc(N)c(Sc2ccc(Cl)cc2)c(=O)[nH]1 [Compound 167] | 90.0 | 0.22 | 
3 | 28.5 | COc1ccc(OC)c(Sc2c(N)nc(N)[nH]c2=O)c1 [Compound 169] | 142.5 | 0.2 | 
4 | 122 | Nc1nc(N)c(Sc2ccc(C(=O)O)cc2)c(=O)[nH]1 [Compound 170] | 2.3 | 53.8 | RL/Pc selectivity ratio ([3]; IC50 RL DHFR divided by IC50 Pc DHFR): 1.4; IC50 ([3]; Pneumocystis carinii DHFR): 89.5 µM
5 | 4.7 | Nc1nc(N)c(Sc2ccccc2Cl)c(=O)[nH]1 [Compound 171] | 13.4 | 0.35 | 
6 | 30 | Nc1nc(N)c(Sc2ccc3ccccc3c2)c(=O)[nH]1 [Compound 174] | 85.7 | 0.35 | 
7 | 53.4 | COc1cccc(Sc2c(N)nc(N)[nH]c2=O)c1 [Compound 175] | 92.1 | 0.58 | 
8 | 17.5 | Nc1nc(N)c(Sc2c(Cl)cccc2Cl)c(=O)[nH]1 [Compound 176] | 10.3 | 1.7 | 
9 | 2.3 | Nc1nc(N)c(Sc2ccc(Cl)cc2Cl)c(=O)[nH]1 [Compound 177] | 16.4 | 0.14 | 
10 | 101 | Nc1nc(N)c(Sc2ccncc2)c(=O)[nH]1 [Compound 179] | 11.9 | 8.5 | 
11 |  | Nc1nc(N)c(SCc2ccc(Cl)cc2)c(=O)[nH]1 [Compound 180] | >3.16# | 16.6 | RL DHFR inhibition at 60 μM ([1]; @ 60 μM): 26% @ 60 μM
12 |  | COc1ccc(Sc2c(N)nc(N)[nH]c2=O)cc1OC [Compound 181] | >35.2# | 1.9 | inhibition at 67 µM ([1]; @ 67 μM): 19%
13 | 20.2 | Nc1nc(N)c(Sc2cc(Cl)cc(Cl)c2)c(=O)[nH]1 [Compound 184] | 74.8 | 0.27 | 
14 | 15 | Nc1nc(N)c(Sc2ccc([N+](=O)[O-])cc2)c(=O)[nH]1 [Compound 185, 2,4-diamino-6-oxo-5-(4′-nitrophenylthio)pyrimidine] | 55.6 | 0.27 | melting point: > 300 °C (dec.)
15 | 40.7 | Nc1nc(N)c(SCc2ccccc2)c(=O)[nH]1 [Compound 187] | 7.7 | 5.3 | 
16 | 117 | Nc1nc(N)c(Sc2ccccn2)c(=O)[nH]1 [Compound 188] | 24.9 | 4.7 | 
17 | 24.2 | Nc1nc(N)c(SCc2ccc(Cl)c(Cl)c2)c(=O)[nH]1 [Compound 190] | 16.1 | 1.5 | 
18 | 66.8 | COc1cccc(CSc2c(N)nc(N)[nH]c2=O)c1 [Compound 191] | 10.1 | 6.6 | 
19 | 7 | Nc1nc(N)c(SCc2ccc(Cl)cc2Cl)c(=O)[nH]1 [Compound 193] | 10 | 0.7 | 
20 | 193 | Cc1ccc(CSc2c(N)nc(N)[nH]c2=O)cc1 [Compound 194] | 25.4 | 7.6 | 
21 |  | Cc1cccc(CSc2c(N)nc(N)[nH]c2=O)c1 [Compound 196] | >7.18 # | 11.5 | RL DHFR inhibition at 90 μM ([1]; @ 90 μM): 3% @ 90 μM
22 | 8.2 | Nc1nc(N)c(SCc2ccccc2Cl)c(=O)[nH]1 [Compound 197] | 3.7 | 2.2 | 
23 | 263 | COc1ccccc1Sc1c(N)nc(N)[nH]c1=O [Compound 198] | 45.3 | 5.8 | 
24 | 53 | Nc1nc(N)c(Sc2nc(-c3ccccc3)cs2)c(=O)[nH]1 [Compound 199] | 4.3 | 12.2 | 
25 | 46.7 | Nc1nc(N)c(SCc2ccc(Br)cc2)c(=O)[nH]1 [Compound 202] | 24.6 | 1.9 | 
